Tests used:
[1] = biological target: Ba/F3 ERBB2 YVMA (Homo sapiens, UniProt P04626, DUP772-775, cells depend on it); test: Cell viability assay (CellTiter Glo), Ba/F3 cells engineered to express ERBB2 YVMA; format: cell-based, mouse; settings: Ba/F3 cells expressing human ERBB2 YVMA mutant, 72 hours, read-out: Ba/F3 ERBB2 YVMA, IC50
Procedure: Cells were treated with compounds, and cell viability was measured as a metric of kinase inhibition.
BT-474, A431, MDA-MB-175VII, NCI-H1781, MCF7, and Ba/F3 cell lines were tested. The Ba/F3 cell line is IL-3-dependent mouse cell line derived from the C3H mouse strain. Ba/F3 cell lines were engineered to express human ERBB2 or EGFR kinases, rendering the cells IL-3 independent. The lines were generated via retroviral transduction utilizing a Moloney murine leukemia virus (MMLV) promoter, and constructs are stably integrated into the cell genome. The sequences of the ERBB2 and EGFR genes used were NCBI Reference Sequences NM_004448.3 and NM_005228.3, respectively.
BT-474, A431, MDA-MB-175VII, NCI-H1781 and MCF7 cells were grown in the appropriate growth medium as described in Table B2 below, and harvested at 50-80% confluence. BT-474, A431, MDA-MB-175VII, NCI-H1781 and MCF7 cells were counted and seeded at 2,000 or 1,500 cells per well in 384-well tissue culture plates (see Table B2). Similarly, Ba/F3 cell lines engineered to express EGFR, ERBB2, or ERBB2 mutants were grown, harvested, counted and seeded at 3000 cells per well in 96-well plates. A subset of wells contained media only (low control, “LC”).
Table B1 provides the growth media and number of cells seeded per well for the each cell line.
Compounds were dissolved in DMSO and serially diluted. Serially-diluted compound or a DMSO only control (high control, “HC”) was added to the plated cells in each well. Compounds were tested at concentrations of about 10 μM to 0.51 nM, using three-fold dilutions. The final proportion of DMSO never exceeded 0.1%.
Plates were placed in a 37° C., 5% CO2 incubator for 72 hours. Plates were then removed from the incubator and equilibrated for 15 minutes at room temperature. 40 μl of CellTiter Glo reagent (Promega) was added to measure the relative level of metabolically active cells by quantifying intracellular ATP concentrations. Plates were incubated for 30 minutes at room temperature, and luminescence was measured. Percent viability was normalized to a vehicle control only using the following formula: % viability=100×(Lumsample−LumLC)/(LumHC−LumLC). Graphical curves were fitted using a nonlinear regression model with a sigmoidal dose response.

[2] = biological target: T1, phosphorylated ERBB2 (pERBB2) (Homo sapiens, UniProt P04626); test: Detection of phosphorylated ERBB2 (pERBB2) by ELISA in BT-474 cells; format: cell-based; settings: four hour incubation
T1 construct: endogenous in cells; host or cells: BT-474
T1 sequence (P04626 23-1255): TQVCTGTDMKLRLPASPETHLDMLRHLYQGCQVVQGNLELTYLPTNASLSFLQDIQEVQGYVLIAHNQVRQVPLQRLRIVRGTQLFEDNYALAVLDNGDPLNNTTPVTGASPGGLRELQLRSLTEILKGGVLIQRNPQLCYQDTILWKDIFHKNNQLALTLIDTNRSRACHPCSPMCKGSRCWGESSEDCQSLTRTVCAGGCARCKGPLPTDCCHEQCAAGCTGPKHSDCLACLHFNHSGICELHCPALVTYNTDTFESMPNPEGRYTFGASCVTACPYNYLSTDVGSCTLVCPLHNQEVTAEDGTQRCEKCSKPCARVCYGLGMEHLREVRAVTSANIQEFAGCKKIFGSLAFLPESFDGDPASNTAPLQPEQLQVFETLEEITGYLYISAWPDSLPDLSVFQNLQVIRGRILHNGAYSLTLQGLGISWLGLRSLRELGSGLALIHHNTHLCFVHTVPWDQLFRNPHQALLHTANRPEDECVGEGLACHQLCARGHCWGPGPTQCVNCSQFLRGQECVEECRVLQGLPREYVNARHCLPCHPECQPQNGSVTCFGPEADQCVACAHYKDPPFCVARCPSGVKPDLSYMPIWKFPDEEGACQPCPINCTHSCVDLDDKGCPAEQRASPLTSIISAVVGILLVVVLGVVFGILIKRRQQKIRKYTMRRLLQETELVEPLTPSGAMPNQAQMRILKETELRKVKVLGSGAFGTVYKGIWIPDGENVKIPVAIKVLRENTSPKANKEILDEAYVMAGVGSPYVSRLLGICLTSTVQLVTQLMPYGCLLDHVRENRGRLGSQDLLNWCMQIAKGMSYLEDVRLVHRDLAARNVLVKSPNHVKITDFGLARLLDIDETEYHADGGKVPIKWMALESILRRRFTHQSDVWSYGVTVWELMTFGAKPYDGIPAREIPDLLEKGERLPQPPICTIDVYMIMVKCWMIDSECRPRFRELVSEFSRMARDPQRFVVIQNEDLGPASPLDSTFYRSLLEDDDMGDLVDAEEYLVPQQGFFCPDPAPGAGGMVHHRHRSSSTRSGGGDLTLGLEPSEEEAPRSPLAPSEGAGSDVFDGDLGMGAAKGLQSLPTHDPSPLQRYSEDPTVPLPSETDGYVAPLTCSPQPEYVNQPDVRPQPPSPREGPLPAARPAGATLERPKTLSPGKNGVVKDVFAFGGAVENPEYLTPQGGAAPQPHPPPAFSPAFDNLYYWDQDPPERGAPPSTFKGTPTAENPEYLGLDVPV
How it was run: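 BT-474 cells were treated with compounds (fourfold dilutions, 10 μM to 0.01 nM final) for 4 h at 37 °C, then lysed. pERBB2 in lysates was quantified by ELISA with an HRP anti-phosphotyrosine detection antibody and TMB read at 450 nm; % relative activity was normalized to no-cell and 0.1% DMSO controls.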

[3] = biological target: T2, phosphorylated EGFR (pEGFR) (Homo sapiens, UniProt P00533); test: Detection of phosphorylated EGFR (pEGFR) by AlphaLISA in EGF-stimulated A431 cells; format: cell-based; settings: A431 cells (10% FBS), 4 hours incubation, EGF 30 ng/mL for 10 minutes
T2 construct: performed to measure phosphorylated EGFR levels using A431 cells (10% FBS); endogenous in cells; host or cells: A431
T2 sequence (P00533 25-1210): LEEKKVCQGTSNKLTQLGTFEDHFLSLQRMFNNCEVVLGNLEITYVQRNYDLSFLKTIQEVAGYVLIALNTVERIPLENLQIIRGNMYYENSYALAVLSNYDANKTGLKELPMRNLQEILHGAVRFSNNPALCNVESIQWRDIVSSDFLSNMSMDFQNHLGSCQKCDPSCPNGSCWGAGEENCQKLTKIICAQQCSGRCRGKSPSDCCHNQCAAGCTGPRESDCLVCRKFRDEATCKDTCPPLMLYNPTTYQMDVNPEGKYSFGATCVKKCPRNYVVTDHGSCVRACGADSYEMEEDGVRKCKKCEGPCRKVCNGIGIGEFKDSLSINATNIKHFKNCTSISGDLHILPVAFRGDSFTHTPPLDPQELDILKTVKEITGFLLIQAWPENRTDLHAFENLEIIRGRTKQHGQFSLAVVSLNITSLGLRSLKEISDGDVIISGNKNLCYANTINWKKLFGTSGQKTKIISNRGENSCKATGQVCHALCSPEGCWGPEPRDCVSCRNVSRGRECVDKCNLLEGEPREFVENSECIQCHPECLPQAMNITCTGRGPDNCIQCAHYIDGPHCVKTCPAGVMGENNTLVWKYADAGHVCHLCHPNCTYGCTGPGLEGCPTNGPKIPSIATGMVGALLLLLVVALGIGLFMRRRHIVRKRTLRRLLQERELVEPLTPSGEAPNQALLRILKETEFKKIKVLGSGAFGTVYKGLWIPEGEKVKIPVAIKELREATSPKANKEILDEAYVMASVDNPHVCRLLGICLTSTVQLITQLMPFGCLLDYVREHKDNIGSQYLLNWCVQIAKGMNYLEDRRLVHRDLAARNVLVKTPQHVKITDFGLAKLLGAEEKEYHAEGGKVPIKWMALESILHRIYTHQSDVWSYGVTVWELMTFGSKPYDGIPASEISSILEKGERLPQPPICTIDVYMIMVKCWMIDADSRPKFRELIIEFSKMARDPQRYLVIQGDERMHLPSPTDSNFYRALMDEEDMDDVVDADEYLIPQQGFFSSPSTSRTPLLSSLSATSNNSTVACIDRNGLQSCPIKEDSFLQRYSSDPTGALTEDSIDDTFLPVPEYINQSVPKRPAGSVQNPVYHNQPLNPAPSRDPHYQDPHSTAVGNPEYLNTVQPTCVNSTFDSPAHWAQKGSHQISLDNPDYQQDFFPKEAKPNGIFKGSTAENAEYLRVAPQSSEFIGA
How it was run: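 pEGFR was quantified by AlphaLISA in lysates of A431 cells (10% FBS) given a 10 min pulse of EGF at 30 ng/mL after 4 h compound exposure at 37 °C. IC50 came from a four-parameter fit of % inhibition between DMSO and staurosporine controls.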

Sequence of Ba/F3 ERBB2 YVMA (P04626 with tags, fused parts or gaps DUP772-775): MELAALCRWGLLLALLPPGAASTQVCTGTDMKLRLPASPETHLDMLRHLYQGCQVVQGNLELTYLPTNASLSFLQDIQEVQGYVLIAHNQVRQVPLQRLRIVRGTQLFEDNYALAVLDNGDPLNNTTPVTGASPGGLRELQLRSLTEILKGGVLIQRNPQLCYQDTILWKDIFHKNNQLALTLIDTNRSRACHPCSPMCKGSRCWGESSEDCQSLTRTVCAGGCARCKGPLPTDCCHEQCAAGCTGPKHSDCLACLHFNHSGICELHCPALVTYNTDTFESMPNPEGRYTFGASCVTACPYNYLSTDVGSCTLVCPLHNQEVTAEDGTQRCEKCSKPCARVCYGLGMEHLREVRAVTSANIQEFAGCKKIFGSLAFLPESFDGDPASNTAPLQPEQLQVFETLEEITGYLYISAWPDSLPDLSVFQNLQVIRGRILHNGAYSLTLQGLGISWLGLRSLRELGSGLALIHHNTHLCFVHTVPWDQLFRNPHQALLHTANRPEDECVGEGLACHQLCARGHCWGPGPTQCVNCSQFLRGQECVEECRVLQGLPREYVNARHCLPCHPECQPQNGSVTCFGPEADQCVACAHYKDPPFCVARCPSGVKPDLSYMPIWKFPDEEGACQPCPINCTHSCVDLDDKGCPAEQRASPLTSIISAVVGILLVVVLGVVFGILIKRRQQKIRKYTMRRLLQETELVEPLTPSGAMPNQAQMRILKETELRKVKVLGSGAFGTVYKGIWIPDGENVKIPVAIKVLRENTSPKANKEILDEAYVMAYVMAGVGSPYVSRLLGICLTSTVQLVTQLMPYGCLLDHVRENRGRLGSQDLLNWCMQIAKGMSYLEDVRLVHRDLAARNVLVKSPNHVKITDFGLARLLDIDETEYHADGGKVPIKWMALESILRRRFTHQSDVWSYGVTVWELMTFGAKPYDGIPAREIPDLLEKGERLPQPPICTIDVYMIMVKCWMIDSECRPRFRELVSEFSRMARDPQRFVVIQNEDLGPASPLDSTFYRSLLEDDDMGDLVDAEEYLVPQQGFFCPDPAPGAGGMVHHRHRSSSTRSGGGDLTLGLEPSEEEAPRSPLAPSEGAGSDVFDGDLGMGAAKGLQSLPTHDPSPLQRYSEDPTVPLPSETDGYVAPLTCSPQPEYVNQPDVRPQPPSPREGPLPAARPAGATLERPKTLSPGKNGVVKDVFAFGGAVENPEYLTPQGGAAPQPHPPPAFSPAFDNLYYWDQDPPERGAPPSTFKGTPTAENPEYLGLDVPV

Structure (SMILES)	IC50 [2]	IC50 [3]	GI50 [1]
C=CC(=O)N1CCN2c3nc4c(Nc5ccc(Oc6ccc7c(c6)ncn7C)c(C)c5)ncnc4cc3OC[C@H]2C1 [Compound 8, (R)-1-(11-((3-methyl-4-((1-methyl-1H-benzo[d]imidazol-5-yl)oxy)phenyl)amino)-1,2,4a,5-tetrahydropyrazino[1,2-d]pyrimido[4′,5′:5,6]pyrido[3,2-b][1,4]oxazin-3(4H)-yl)prop-2-en-1-one]	18.1 nM	643 nM	13.3 nM
Cc1cc(Nc2ncnc3cc4c(cc23)N2CCN(C(=O)/C=C/CN(C)C)C[C@H]2CO4)ccc1Oc1ccc2c(c1)ncn2C [Compound 11, (S,E)-4-(dimethylamino)-1-(11-((3-methyl-4-((1-methyl-1H-benzo[d]imidazol-5-yl)oxy)phenyl)amino)-1,2,4a,5-tetrahydropyrazino[1′,2′:4,5][1,4]oxazino[3,2-g]quinazolin-3(4H)-yl)but-2-en-1-one]	73.3 nM	1180 nM	65.3 nM
Cc1cc(Nc2ncnc3cc4c(cc23)N2CCN(C(=O)/C=C/CN(C)C)C[C@@H]2CO4)ccc1Oc1ccc2c(c1)ncn2C [Compound 12, (R,E)-4-(dimethylamino)-1-(11-((3-methyl-4-((1-methyl-1H-benzo[d]imidazol-5-yl)oxy)phenyl)amino)-1,2,4a,5-tetrahydropyrazino[1′,2′:4,5][1,4]oxazino[3,2-g]quinazolin-3(4H)-yl)but-2-en-1-one]	83.7 nM	2840 nM	206 nM

Continued by falling IC50 [2], values first:

IC50 [2]	IC50 [3]	Structure (SMILES)	GI50 [1]
82.8 nM	545 nM	CC#CC(=O)N1CCN2c3cc4c(Nc5ccc(Oc6ccc7c(c6)ncn7C)c(C)c5)ncnc4cc3OC[C@@H]2C1 [Compound 14, (S)-1-(11-((3-methyl-4-((1-methyl-1H-benzo[d]imidazol-5-yl)oxy)phenyl)amino)-1,2,4a,5-tetrahydropyrazino[1′,2′:4,5][1,4]oxazino[3,2-g]quinazolin-3(4H)-yl)but-2-yn-1-one]	14.4 nM
36.1 nM	1680 nM	Cc1cc(Nc2ncnc3cc4c(cc23)N2CCN(C(=O)/C=C/CN(C)C)C[C@H]2CO4)ccc1Oc1ccn2ncnc2c1 [Compound 9, (S,E)-1-(11-((4-([1,2,4]triazolo[1,5-a]pyridin-7-yloxy)-3-methylphenyl)amino)-1,2,4a,5-tetrahydropyrazino[1′,2′:4,5][1,4]oxazino[3,2-g]quinazolin-3(4H)-yl)-4-(dimethylamino)but-2-en-1-one]	41.2 nM
32.7 nM	3280 nM	Cc1cc(Nc2ncnc3cc4c(cc23)N2CCN(C(=O)/C=C/CN(C)C)C[C@@H]2CO4)ccc1Oc1ccn2ncnc2c1 [Compound 10, (R,E)-1-(11-((4-([1,2,4]triazolo[1,5-a]pyridin-7-yloxy)-3-methylphenyl)amino)-1,2,4a,5-tetrahydropyrazino[1′,2′:4,5][1,4]oxazino[3,2-g]quinazolin-3(4H)-yl)-4-(dimethylamino)but-2-en-1-one]	84.9 nM
13 nM	254 nM	CC#CC(=O)N1CCN2c3cc4c(Nc5ccc(Oc6ccn7ncnc7c6)c(C)c5)ncnc4cc3OC[C@@H]2C1 [Compound 13, (S)-1-(11-((4-([1,2,4]triazolo[1,5-a]pyridin-7-yloxy)-3-methylphenyl)amino)-1,2,4a,5-tetrahydropyrazino[1′,2′:4,5][1,4]oxazino[3,2-g]quinazolin-3(4H)-yl)but-2-yn-1-one]	6.24 nM
6.93 nM	284 nM	Cc1cc(Nc2ncnc3cc4c(nc23)N2CCN(C(=O)/C=C/CN(C)C)C[C@@H]2CO4)ccc1Oc1ccn2ncnc2c1 [Compound 15, (R,E)-1-(11-((4-([1,2,4]triazolo[1,5-a]pyridin-7-yloxy)-3-methylphenyl)amino)-1,2,4a,5-tetrahydropyrazino[1,2-d]pyrimido[4′,5′:5,6]pyrido[3,2-b][1,4]oxazin-3(4H)-yl)-4-(dimethylamino)but-2-en-1-one]	4.89 nM

— patent US20260078135A1, “POLYCYCLIC QUINAZOLINES FOR INHIBITION OF ERBB2” (Enliven Inc., priority 2022, published 2026)
